Numbers after ± are expanded uncertainties.
What was measured:
[1] = refractive index (Na D-line) (dimensionless); conditions: 293.15 K; 101.33 kPa; Liquid; Standard Abbe refractometry
[2] = wn = mass fraction of the nth substance listed; conditions: 100 kPa, Liquid; for viscosity: Falling or rolling sphere viscometry; for mass density: Vibrating tube method

CO [methanol]
Conditions | refractive index
[1] | 1.32858 ± 0.0004

CO [methanol] + O
[2]
Conditions | mass density, w1 = 0.1 [kg/m3] | mass density, w1 = 0.2 [kg/m3] | mass density, w1 = 0.3001 [kg/m3] | mass density, w1 = 0.4 [kg/m3] | mass density, w1 = 0.4999 [kg/m3] | viscosity, w1 = 0.1 [mPa·s] | viscosity, w1 = 0.2 [mPa·s] | viscosity, w1 = 0.3001 [mPa·s] | viscosity, w1 = 0.4 [mPa·s] | viscosity, w1 = 0.4999 [mPa·s]
273.15 K | 984.19 ± 1 | 972.46 ± 1 | 960.61 ± 1 | 945.89 ± 1 | 928.63 ± 1 | 2.575 ± 0.055 | 3.315 ± 0.07 | 3.636 ± 0.077 | 3.623 ± 0.077 | 3.312 ± 0.07
293.15 K | 981.29 ± 1 | 966.62 ± 1 | 951.49 ± 1 | 934.6 ± 1 | 915.53 ± 1 | 1.316 ± 0.028 | 1.623 ± 0.035 | 1.782 ± 0.038 | 1.824 ± 0.039 | 1.747 ± 0.037

O [water] + CO
[2], w2 = 0
Conditions | mass density [kg/m3] | viscosity [mPa·s]
275.15 K | 999.94 ± 1 | 1.661 ± 0.035
293.15 K | – | 0.998 ± 0.021

— the NIST ThermoML archive (doi:10.1016/j.jct.2019.05.013)
